Key:
Assay type in all cases: in vivo
[1] = test system: paddy grain; test: Micronutrient absorption levels in paddy grains by ICP; details: paddy grain samples
Procedure: Analysis of Micronutrients in Paddy Samples by ICP (Inductive Coupled Plasma) Equipment.
• i. 1 gm of grain powder added to 60 ml of perchloric acid and Nitric acid (9:1) digest for overnight. • ii. Heat at 100° C. for 2 hours until vapors change from red to white color. • iii. The resultant solution filtered through Whatman paper and makeup to 100 ml with 1% nitric acid.

[2] = test system: paddy grain; test: Estimation of total protein content in paddy grain samples by Lowry method; details: 660 nm
Procedure: To the above solution add 5 g of Na2co3 mix well. B. 1% NAK Tartrate (Sodium Potassium Tartrate) Preparation: • Dissolve 1 g of NAK tartrate in 100 ml of volumetric flask and then make up to mark with distilled water. C. […] Dissolve 100 mg of BSA in 100 ml of volumetric flask and then make up to mark with distilled water. Take 6 test tubes then add to the above solution each of 0.1, 0.2, 0.3, 0.4, 0.5, 0.6. Sample Procedure: • i. […] Then filter through whatman filter paper 1 we take test tubes and add 1 ml of each sample. • iii. Add 4.5 ml of reagent 1 and incubate for 10 mins. • iv. After incubation add 0.5 ml of reagent 2 and incubate for 30 mins. • v. Measure the absorbance at 660 nm and plot the standard graph. The Analysis of protein estimation in grain samples is performed by Lowry method with UV Vis Spectro photo meter at 660 nm.

[3] = test system: paddy grain; test: Estimation of total phenol content in paddy grain samples (Folin-Ciocalteu); details: absorbance at 765 nm
Procedure: Folin-Ciocalteu's Phenol Reagent Preparation: Take 5 ml of folin ciocalteu's phenol reagent in 50 ml of volumetric flask and then make up to the mark with distilled water 7.5% of Na2CO3 Preparation: Take 7.5 g of Na2CO3 in 100 ml of volumetric flask and then make up to mark with distilled water. Sample Procedure: • i. […] Keep it hot plate for extraction at 95° C. for 1 hr. • iii. After 1 hr filter through whatman filter paper 1 and then make up to 25 ml of volumetric flask with 70% methanol. • iv. […] Incubation for 5 mins. • vi. After 5 mins add 4 ml of 7.5% Na2CO3 mix well then keep it dark place incubation for 1 hr. • vii. Measure the absorbance at 765 nm. • viii. […] Check OD @765 nm.

Row | Structure (SMILES) | B (Boron) [1] [ppm] | Ca (Calcium) [1] [ppm] | Co (Cobalt) [1] [ppm] | Cu (Copper) [1] [ppm] | Fe (Iron) [1] [ppm] | Mg (Magnesium) [1] [ppm] | Mn (Manganese) [1] [ppm] | Zn (Zinc) [1] [ppm] | Total Protein content [2] [ppm] | Phenol Content [3] [ppm]
1 | O=CO.O=C[O-].[K+] [Potassium diformate] | 35.9 | 399.0 | 14.2 | 35.0 | 397.0 | 678.0 | 50.4 | 66.6 | 0.084 | 17.96
2 | O=C[O-].[K+] [Potassium formate] | 38.4 | 401.7 | 14.2 | 37.0 | 401.0 | 646.0 | 46.5 | 50.6 | 0.086 | 16.69

From patent US20240164385A1, “A SYNERGISTIC PLANT GROWTH STIMULANT COMPOSITION COMPRISING POTASSIUM MONO/DIFORMATE AND METAL ION COMPOUNDS TO ENHANCED METABOLIC ACTIVITIES IN PLANTS” (FERTIS INDIA PVT LTD, priority 2021, published 2024)
